Test results from patent US20070259908A1, “Mitochondria Activators” (KANEKA CORPORATION, priority 2004, published 2007).

Tests used:
[1] = tested on: tissue of the pancreatic islets of Langerhans; experiment: Insulin secretion from cultured tissue of the pancreatic islets of Langerhans (ELISA), as index of mitochondria-activating activity / ATP production; assay type: cell-based, rat; conditions: for insulin concentration (secretion amount of insulin from tissue of the islets of Langerhans) / insulin concentration, value in parentheses (control = 100): 0.1 μg/ml of each test substance in medium, culture for 1 hr; for insulin concentration (secretion amount of insulin from tissue of the islets of Langerhans): ELISA, control 43 ± 8; for insulin concentration, value in parentheses (control = 100): relative to control (100); for increase of the concentration of insulin in the medium: addition amount of 0.1 μg/ml, versus control
Source text: Therefore, a tissue of the pancreatic islets of Langerhans, which reacts with ATP to secrete insulin, was used to evaluate the mitochondria-activating activity of a test substance, with the insulin secretion as an index. As the tissue of the pancreatic islets of Langerhans, a culture kit (manufactured by Hokudo Co., Ltd) prepared from a rat was used. […] In the same manner as in Example 1, a tissue of the pancreatic islets of Langerhans was used to evaluate the mitochondria-activating activity of a test substance, with the insulin secretion as an index. As the tissue of the pancreatic islets of Langerhans, a culture kit (manufactured by Hokudo Co., Ltd) prepared from a rat was used.

rats = conditions: consecutive administration of 1200 mg/Kg/day for 52 weeks; cited from earlier work
kidney = conditions: reported in patent reference 5; narrow safety margin; cited from earlier work

| SMILES | insulin concentration (secretion amount of insulin from tissue of the islets of Langerhans) [1] | insulin concentration, value in parentheses (control = 100) [1] | increase of the concentration of insulin in the medium [1] | toxic effect in chronic toxicity test (rats) | toxicity to kidney (kidney) |
| --- | --- | --- | --- | --- | --- |
| O=C(O)CC(O)(CC(=O)O)C(=O)O [citric acid] | 2030 ± 391 ng/mL | 4720 | 47 fold |  |  |
| COC1=C(OC)C(=O)C(C/C=C(\C)CC/C=C(\C)CC/C=C(\C)CC/C=C(\C)CC/C=C(\C)CC/C=C(\C)CC/C=C(\C)CC/C=C(\C)CC/C=C(\C)CCC=C(C)C)=C(C)C1=O [coenzyme Q10] |  |  |  | absence of toxic effect |  |
| COC1=C(OC)C(=O)C(C/C=C(\C)CC/C=C(\C)CC/C=C(\C)CC/C=C(\C)CC/C=C(\C)CC/C=C(\C)CC/C=C(\C)CC/C=C(\C)CC/C=C(\C)CCC=C(C)C)=C(C)C1=O [oxidized coenzyme Q10, reference compound] | 329 ± 85 ng/mL | 765 | 7.7 fold |  |  |
| O=C(O)c1cc(C(=O)O)c2c(n1)C(=O)C(=O)c1cc(C(=O)O)[nH]c1-2 [pyrroloquinoline quinone, 2,7,9-tricarboxy-1H-pyrrolo[2,3-f]quinoline-4,5-dione] | 220 ± 56 ng/mL | 511 | 5.1 fold |  | strong toxicity to kidney |
| COc1c(O)c(C)c(C/C=C(\C)CC/C=C(\C)CC/C=C(\C)CC/C=C(\C)CC/C=C(\C)CC/C=C(\C)CC/C=C(\C)CC/C=C(\C)CC/C=C(\C)CCC=C(C)C)c(O)c1OC [reduced coenzyme Q10] | 360 ± 78 ng/mL | 837 | 8.3 fold |  |  |
